Source: US4174406A, “Terpenylaminoalkanol fish toxicants” (priority 1977, dated 1979)
≈ marks a conversion by molar mass, not a printed value.

Tests used:
Bluegill = test: Outdoor plastic pool test (Table 3); type: in vivo, Lepomis macrochirus; conditions: for % kill: 96 hour, 50% formulation (hydrochloride salt)
Experimental: (§1) N-(2-hydroxyethyl) digeranylamine was tested as a selective fish toxicant in outdoor pools stocked with various fish species and lined with black plastic using 50% water soluble formulations (hydrochloride salt). The formulation was added to each of four pools of 4,000-liter capacity at concentrations of 0.10, 0.15, 0.20, and 0.30 mg/liter. Another pool containing the same number, size, and species of fish served as a control. The test water had algal blooms, a pH of about 8.5, and a total hardness of about 200 mg/liter as CaCo3. The temperature was cool enough (15°-16°C.) to permit the use of trout.
(§2) Fish were obtained from state and federal hatcheries and maintained prior to testing by a trained fish culturist. Fish of total length 2-5 cm were used in laboratory tests while for outdoor tests small fish (4-6 cm in length) and larger carp and buffalo (Ictiobus cyprinellus) were used.
(§3) In all tests 10 fish of each were exposed to selective concentrations of the toxicant. Mortalities were observed and recorded at 1,2 and 6 hours on the first day and once daily thereafter, during 96 hour exposure.
(§4) Outdoor pool tests were conducted using 50% formulation of the toxicant N-(2-hydroxyethyl) digeranylamine as indicated in Example 8. […] If selective control of white sucker and common carp is desired in an environment which includes rainbow trout, one should employ an effective concentration of toxicant which is at least as great as 0.05 mg/liter but less than 0.1 mg/liter. As a practical fishery practice in the northern United States and Canada, rainbow trout are not usually stocked in bodies of water containing the common carp species; the habitat conditions including water temperature and available oxygen of these species are usually quite different. Common carp and rainbow trout have quite different oxygen and temperature requirements and these differences generally preclude both species cohabitating under natural conditions. In this case the useful range to control common carp and white sucker can be much broader, i.e. 0.1 to 0.3 mg/liter.

Largermouth bass = test: Laboratory fish toxicity test (Table 1); type: in vivo, Micropterus salmoides; conditions: tech, 12 C, soft water
Experimental: as §2, §3
(§5) Laboratory tests were also conducted in soft water 12° C. wherein the toxicant was evaluated against fifteen species of fish including both cold and warm water varieties. In Table 1, the LC 50 toxicity values for N-(2-hydroxyethyl) digeranylamine is shown for various species. LC50 is defined as the amount (mg/liter) of toxicant required to kill 50 percent of the particular fish species at 95% confidence interval.

Asiade clam = test: Static bioassay in invertebrates (Table 2); type: in vivo, Corbicula sp.; conditions: tech, 17 C, limed spring water 22-36 mg/l hardness
Experimental: The effect of the various toxicants on common invertebrate species was determined in a static test conducted 17° C. The invertebrates tested were collected from natural populations or purchased from commercial suppliers. They were held in soft water in fiberglass tanks in the laboratory or in outdoor plastic swimming pools. Mortality was observed during holding, and only healthy organisms were used for the toxicity tests. At least 10 organisms of nine species were exposed to each concentration in static tests.

Largemouth buffalo = test: Outdoor plastic pool test (Table 3); type: in vivo, Ictibous cyprinellus; conditions: 96 hour, 50% formulation (hydrochloride salt)
Experimental: as §1, §2, §3, §4

[1] = system: Chinook, coho salmon, rainbow trout, goldfish, fathead, minnow, banded killfish, and walleye; test: Relative resistance of fish species in laboratory tests; type: in vivo; conditions: soft water, 12 C
Experimental: as §5

Smallmouth bass = test: Laboratory fish toxicity test (Table 1); type: in vivo, Micropterus dolomieui; conditions: tech, 12 C, soft water
Experimental: as §2, §3, §5

Black bullhead = test: Outdoor plastic pool test (Table 3); type: in vivo, Ictalurus melas; conditions: for % kill: 96 hour, 50% formulation (hydrochloride salt)
Experimental: as §1, §2, §3, §4

Carp [2] = test: Outdoor plastic pool test (Table 3); type: in vivo, Cyprinus carpio; conditions: for % kill: 50% formulation (hydrochloride salt); for survival (in words): larger carp (19 cm)
Experimental: as §1, §2, §3, §4

Rainbow trout = test: Outdoor plastic pool test (Table 3); type: in vivo, Salmo gairdneri; conditions: 96 hour; for % kill: 50% formulation (hydrochloride salt)
Experimental: as §1, §2, §3, §4

Green sunfish [3] = test: Laboratory fish toxicity test (Table 1); type: in vivo, Lepomis cyanellus; conditions: tech, 12 C, soft water
Experimental: as §2, §3, §5

Channel catfish = test: Outdoor plastic pool test (Table 3); type: in vivo, Ictalurus punctatus; conditions: for % kill: 96 hour, 50% formulation (hydrochloride salt)
Experimental: as §1, §2, §3, §4

Green sunfish [4] = test: Influence of pH on toxicity to green sunfish in soft water (Table 4); type: in vivo, Lepomis cyanellus; conditions: tech, 12 C
Experimental: To determine the influence of pH of the water used on the toxicity of the terpenylaminoalkanols evaluated, experiments were conducted with green sunfish (Lepomis cyanellus) using soft water at 12° C. and chemically buffered over the range of pH 6 to pH 9.

Carp [5] = test: Laboratory fish toxicity test (Table 1); type: in vivo, Cyprinus carpio; conditions: tech, 12 C, soft water
Experimental: as §2, §3, §5

Fathead minnow = test: Laboratory fish toxicity test (Table 1); type: in vivo, Pimephales promelas; conditions: tech, 12 C, soft water
Experimental: as §2, §3, §5

Banded killifish = test: Laboratory fish toxicity test (Table 1); type: in vivo, Fundulus diaphanus; conditions: tech, 12 C, soft water
Experimental: as §2, §3, §5

[6] = 96 hours, listed as N-(2-hydroxyethyl) Digeranylamine, 5760 min

## CC(C)=CCC/C(C)=C/CN(C/C=C(\C)CCC=C(C)C)CCO [N-(2-hydroxyethyl) digeranylamine]
Bluegill; 0.10 mg/l
  % kill: 0%
Bluegill; 0.15 mg/l
  % kill: 0%
Bluegill; 0.20 mg/l
  % kill: 0%
Bluegill; 0.30 mg/l
  % kill: 0%
Bluegill; bluegill, 0.3 mg/liter, 50% formulation
  survival (in words): complete survival
Largermouth bass; 3 hours
  LC50: 1.40 µg/mL (≈ 4.2 µM)
Largermouth bass; 6 hours
  LC50: 0.530 µg/mL (≈ 1.59 µM)
Largermouth bass; 24 hours
  LC50: 0.380 µg/mL (≈ 1.14 µM)
Largermouth bass; 96 hours
  LC50: 0.360 µg/mL (≈ 1.08 µM)
Asiade clam; 28 hours
  LC50: 56.0 µg/mL (≈ 168 µM)
Asiade clam; 96 hours
  LC50: 9.60 µg/mL (≈ 28.8 µM)
Largemouth buffalo; 0.10 mg/l
  % kill: 0%
Largemouth buffalo; 0.15 mg/l
  % kill: 20%
Largemouth buffalo; 0.20 mg/l
  % kill: 20%
Largemouth buffalo; 0.30 mg/l
  % kill: 100%
[1]
  resistance relative to carp or white suckers: more resistant to the toxicant than carp (Caprinus carpio) or white suckers (Castostmus commersoni)
Smallmouth bass; 3 hours
  LC50: 1.36 µg/mL (≈ 4.08 µM)
Smallmouth bass; 6 hours
  LC50: 0.480 µg/mL (≈ 1.44 µM)
Smallmouth bass; 24 hours
  LC50: 0.420 µg/mL (≈ 1.26 µM)
Smallmouth bass; 96 hours, 5760 min
  LC50: 0.37 µg/mL (≈ 1.11 µM)
Smallmouth bass; [6]
  LC50: 0.237 µg/mL (≈ 0.711 µM)
Black bullhead; 0.10 mg/l
  % kill: 0%
Black bullhead; 0.15 mg/l
  % kill: 0%
Black bullhead; 0.20 mg/l
  % kill: 0%
Black bullhead; 0.30 mg/l
  % kill: 0%
Black bullhead; black bullhead, 0.3 mg/liter, 50% formulation
  survival (in words): complete survival
Carp [2]; carp (large), 0.10 mg/l, 96 hour
  % kill: 27%
Carp [2]; carp (large), 0.15 mg/l, 96 hour
  % kill: 66%
Carp [2]; carp (large), 0.20 mg/l, 96 hour
  % kill: 100%
Carp [2]; carp (large), 0.30 mg/l, 96 hour
  % kill: 100%
Carp [2]; carp (small), 0.10 mg/l, 96 hour
  % kill: 100%
Carp [2]; carp (small), 0.15 mg/l, 96 hour
  % kill: 100%
Carp [2]; carp (small), 0.20 mg/l, 96 hour
  % kill: 100%
Carp [2]; carp (small), 0.30 mg/l, 96 hour
  % kill: 100%
Carp [2]; 0.2 mg/liter or higher
  survival (in words): none survived
Carp [2]; 0.10 and 0.15 mg/liter
  survival (in words): Some white suckers and larger carp (19 cm) survived
Carp [2]; small common carp (4-6 cm), above 0.10 mg/l, 96 hour
  kill (in words): completely eliminated at all concentrations above 0.10 mg/l
Rainbow trout; 0.10 mg/l
  % kill: 100%
Rainbow trout; 0.15 mg/l
  % kill: 100%
Rainbow trout; 0.20 mg/l
  % kill: 100%
Rainbow trout; 0.30 mg/l
  % kill: 100%
Rainbow trout; above 0.10 mg/l, 50% formulation
  kill (in words): completely eliminated at all concentrations above 0.10 mg/l
Green sunfish [3]; 24 hours
  LC50: 0.640 µg/mL (≈ 1.92 µM)
Green sunfish [3]; 96 hours
  LC50: 0.640 µg/mL (≈ 1.92 µM)
Channel catfish; 0.10 mg/l
  % kill: 0%
Channel catfish; 0.15 mg/l
  % kill: 0%
Channel catfish; 0.20 mg/l
  % kill: 0%
Channel catfish; 0.30 mg/l
  % kill: 40%
Channel catfish; channel catfish, 0.30 mg/liter and lower, 50% formulation
  survival (in words): died at 0.30 mg/liter of toxicant, but all survived lower concentrations
Green sunfish [4]; pH 6.0, 3 hours
  LC50: 6.34 µg/mL (≈ 19 µM)
Green sunfish [4]; pH 6.0, 6 hours
  LC50: 5.00 µg/mL (≈ 15 µM)
Green sunfish [4]; pH 6.0, 24 hours
  LC50: 2.84 µg/mL (≈ 8.51 µM)
Green sunfish [4]; pH 6.0, 96 hours
  LC50: 1.85 µg/mL (≈ 5.55 µM)
Green sunfish [4]; pH 7.5, 3 hours
  LC50: 2.47 µg/mL (≈ 7.4 µM)
Green sunfish [4]; pH 7.5, 6 hours
  LC50: 1.64 µg/mL (≈ 4.92 µM)
Green sunfish [4]; pH 7.5, 24 hours
  LC50: 1.00 µg/mL (≈ 3 µM)
Green sunfish [4]; pH 7.5, 96 hours
  LC50: 0.829 µg/mL (≈ 2.49 µM)
Green sunfish [4]; pH 8.0, 24 hours
  LC50: 0.520 µg/mL (≈ 1.56 µM)
Green sunfish [4]; pH 8.0, 96 hours
  LC50: 0.520 µg/mL (≈ 1.56 µM)
Green sunfish [4]; pH 9.0, 3 hours
  LC50: 0.870 µg/mL (≈ 2.61 µM)
Green sunfish [4]; pH 9.0, 24 hours
  LC50: 0.360 µg/mL (≈ 1.08 µM)
Green sunfish [4]; pH 9.0, 96 hours
  LC50: 0.268 µg/mL (≈ 0.803 µM)
Carp [5]; 6 hours
  LC50: 1.34 µg/mL (≈ 4.02 µM)
Carp [5]; 24 hours
  LC50: 0.0718 µg/mL (≈ 0.215 µM)
Carp [5]; 96 hours, 5760 min
  LC50: 0.050 µg/mL (≈ 0.15 µM)
Carp [5]; [6]
  LC50: 0.0507 µg/mL (≈ 0.152 µM)
Fathead minnow; 6 hours
  LC50: 1.55 µg/mL (≈ 4.65 µM)
Fathead minnow; 24 hours
  LC50: 0.560 µg/mL (≈ 1.68 µM)
Fathead minnow; 96 hours
  LC50: 0.303 µg/mL (≈ 0.908 µM)
Banded killifish; 3 hours
  LC50: 7.20 µg/mL (≈ 21.6 µM)
Banded killifish; 6 hours
  LC50: 2.77 µg/mL (≈ 8.3 µM)
Banded killifish; 24 hours
  LC50: 1.32 µg/mL (≈ 3.96 µM)
Banded killifish; 96 hours
  LC50: 0.792 µg/mL (≈ 2.37 µM)
